Test results taken from patent US6060608A, “Analogs of CC-1065 and the duocarmycins” (The Scripps Research Institute, priority 1999, dated 2000).
Where two headings read alike, the source gives them in different places.

Tests used:
w794 duplex DNA = assay: DNA alkylation selectivity and efficiency within w794 DNA, thermally-induced strand cleavage and PAGE; type: biochemical, SV40; details: for DNA alkylation efficiency, natural/unnatural enantiomer ratio: (+)/ent-(-)
Source text: DNA Alkylation Selectivity and Efficiency. The DNA alkylation properties of the agents were examined within w794 duplex DNA, a 144 base-pair segment of duplex DNA for which comparative results are available for related agents. The alkylation site identification and the assessment of the relative selectivity among the available sites were obtained by thermally-induced strand cleavage of the singly 5' end-labeled duplex DNA after exposure to the agents. Following treatment of the end-labeled duplex DNA with a range of agent concentrations, the unbound agent was removed by EtOH precipitation of the DNA. Redissolution of the DNA in aqueous buffer, thermolysis (100° C., 30 min) to induce strand cleavage at the sites of DNA alkylation, denaturing high resolution polyacrylamide gel electrophoresis (PAGE) adjacent to Sanger dideoxynucleotide sequencing standards, and autoradiography led to identification of the DNA cleavage and alkylation sites. The DNA alkylation reaction selectivities observed under the incubation conditions for the agents detailed herein have proven identical to the alkylation selectivities observed with shorter or extended reaction periods or when the reactions were conducted at different temperatures (37 or 4° C., 0.5-7 d). As discussed below, the rates and efficiencies but not final relative efficiencies of DNA alkylation were altered by changing the reaction temperatures.
DNA Alkylation Properties. […] The DNA alkylation reaction was examined within w794 DNA for which comparative results are available for past agents. The alkylation site identification was obtained by thermal strand cleavage of the singly 5' end-labeled duplex DNA after exposure to the agents. Following treatment of the labeled DNA with a range of agent concentrations, the unbound agent was removed by EtOH precipitation of the DNA. Redissolution of the DNA in aqueous buffer, thermolysis at 100° C. (30 min) to induce depurination and strand cleavage at the adenine N3 or guanine N3 minor groove alkylation sites, denaturing high resolution PAGE adjacent to Sanger sequencing standards and autoradiography provided the DNA cleavage and alkylation sites.
DNA Alkylation Studies: selectivity and Efficiency. General procedures, the preparation of singly ^32 P 5' end-labeled double stranded DNA, the agent binding studies, gel electrophoresis, and autoradiography were conducted according to standard procedures. Eppendorf tubes containing the 5' end-labeled DNA (9 μL) in TE buffer (10 mM Tris, 1 mM EDTA, pH 7.5) were treated with the agent in DMSO (1 μL at the specified concentration). The solution was mixed by vortexing and brief centrifugation and subsequently incubated at 4 or 25° C. for 24 h (natural enantiomers) and 25 or 37° C. (unnatural enantiomers) for 72 h. The covalently modified DNA was separated from unbound agent by EtOH precipitation and resuspended in TE buffer (10 μL). The solution of DNA in an Eppendorf tube sealed with parafilm was warmed at 100° C. for 30 min to induce cleavage at the alkylation sites, allowed to cool to 25° C. and centrifuged. Formamide dye (0.03% xylene cyanol FF, 0.03% bromophenol blue, 8.7% Na2 EDTA 250 mM) was added (5 μL) to the supernatant. Prior to electrophoresis, the sample was denatured by warming at 100° C. for 5 min, placed in an icebath, and centrifuged, and the supernatant (3 μL) was loaded directly onto the gel. Sanger dideoxynucleotide sequencing reactions were run as standards adjacent to the reaction samples. Polyacrylamide gel electrophoresis (PAGE) was run on an 8% sequencing gel under denaturing conditions (8 M urea) in TBE buffer (100 mM Tris, 100 mM boric acid, 0.2 mM Na2 EDTA) followed by autoradiography.
DNA Alkylation of w794 DNA. Eppendorf tubes containing the 5'-end labeled DNA (9 μL) in TE buffer (10 mM Tris, 1 mM EDTA, pH 7.2) were treated with the agent in DMSO (1 μL at the specified concentration). […]

L1210 = assay: In vitro cytotoxic activity, L1210; details: for cytotoxic activity, ring opened precursor 115 versus cyclopropane 116: L1210; for IC50: Mus musculus, L1210, read-out: cytotoxic activity IC50
[1] = Aqueous solvolysis reactivity followed by UV; type: physicochemical
Method: The reactivity of 217-219 was assessed by following the solvolysis spectrophotometrically by UV at both pH 3 (50% CH3 OH-buffer, buffer=4:1:20 (v/v/v) 0.1 M citric acid, 0.2 M Na2 HPO4, H2 O) and pH 7 (1:1 H2 O--CH3 OH) measuring both the disappearance of the long-wavelength absorption band of the F2 CBI chromophore and the appearance of a short-wavelength absorption band attributable to the ring open products (FIG. 31).
Aqueous Solvolysis Reactivity. pH 3: N-BOC-CCBI (25, 100 μg) was dissolved in CH3 OH (1.5 mL) and mixed with pH 3 aqueous buffer (1.5 mL). The buffer contained 4:1:20 (v:v:v) 0.1 M citric acid, 0.2 M Na2 HPO4 and H2 O, respectively. The solvolysis solution was sealed and kept at 25° C. protected from light. The UV spectrum was measured at regular intervals every 2 h during the first day, every 12 h for another week, and every 24 h for an additional week. The decrease in the long-wavelength absorption at 322 nm and the increase in the short-wavelength absorption at 268 nm were monitored, FIG. 1.
pH 2: Samples of 25 (100 μg) and 26 (50 μg) were dissolved in CH3 OH (1.5 mL) and the solutions were mixed with aqueous buffer (pH 2.05, 1.5 mL). The buffer contained 4:1:20 (v:v:v) 1.0 M citric acid, 0.2 M Na2 HPO4, and H2 O, respectively. Immediately after mixing, the UV spectra of the solutions were measured against a reference solution containing CH3 OH (1.5 mL) and the aqueous buffer (1.5 mL) and these readings were used for the initial absorbance values. The solutions were stoppered, protected from the light, and allowed to stand at 25° C. UV spectra were recorded at regular intervals until constant values were obtained for the long and short wavelength absorbances. The solvolysis rate constants were determined from the slope of the lines obtained from linear least squares treatment of plots of ln[(Af -Ai)/(Af -A)] versus time using the short wavelength measurements for 25 and long wavelength measurements for 26).

[2] = natural enantiomers, 37° C., 72 h

COc1cc2cc(C(=O)N3C[C@H]4C[C@@]45C3=CC(=O)c3ccc(C#N)cc35)[nH]c2c(OC)c1OC [(+)-CCBI-TMI (35)]
DNA alkylation properties, comparison in words (w794 duplex DNA): exhibited the same selectivity and efficiency of DNA alkylation
concentration of detectable alkylation of high affinity site 5'-AATTA (w794 duplex DNA; 25° C., 24 h): 10^-6 to 10^-7 M

N#Cc1ccc2c(c1)[C@]13C[C@H]1CN(C(=O)c1cc4c5c(ccc4[nH]1)N(C(N)=O)CC5)C3=CC2=O [(-)-CCBI-CDPI1]
DNA alkylation properties, comparison in words (w794 duplex DNA): (-)-CCBI-indole2 >(-)-CCBI-CDPI1>(-)-CCBI-TMI

N#Cc1ccc2c(O)cc3c(c2c1)C(CCl)CN3C(=O)c1cc2c3c(ccc2[nH]1)N(C(N)=O)CC3 (stereo not drawn) [compound 38]
cytotoxic activity of seco precursors versus cyclopropane containing agents (L1210): indistinguishable from the cyclopropane containing agents

CC(C)(C)OC(=O)N1C[C@H]2C[C@@]23C1=CC(=O)c1ccc(C#N)cc13 [(+)-N-BOC-CCBI, N-(tert-Butyloxycarbonyl)-7-cyano-1,2,9,9a-tetrahydrocyclopropa[c]benz[e]indol-4-one]
DNA alkylation efficiency, natural/unnatural enantiomer ratio (w794 duplex DNA): 1-2 ×

CC(C)(C)OC(=O)N1CC2C(F)(F)C23C1=CC(=O)c1ccccc13 (stereo not drawn) [compound 219]
solvolysis stability/reactivity [1]: No substantial distinction in the reactivity of 217 and 219 was observed
half-life ([1]; 1:1 h2o-ch3oh, pH 7): 2.33 h
half-life ([1]; 50% ch3oh-buffer, pH 3): 0.26 h
solvolysis rate constant k ([1]; pH 3, 50% CH3OH-buffer): 0.000705 s⁻¹
solvolysis rate constant k ([1]; pH 7, 1:1 H2O-CH3OH): 8.27e-05 s⁻¹

N#Cc1ccc2c(O)cc3c(c2c1)C(CCl)CN3C(=O)c1cc2cc(NC(=O)c3cc4ccccc4[nH]3)ccc2[nH]1 (stereo not drawn) [compound 36]
cytotoxic activity of seco precursors versus cyclopropane containing agents (L1210): indistinguishable from the cyclopropane containing agents

COc1ccc2c(c1)C13CC1CN(C(=O)OC(C)(C)C)C3=CC2=O (stereo not drawn) [N-BOC-MCBI, reference compound]
concentration at which DNA alkylation is detectable (w794 duplex DNA; [2]): 10^-3 M
concentration at which DNA alkylation is prominent (w794 duplex DNA; [2]): 10^-2 M
relative cytotoxic potency of natural versus unnatural enantiomers (L1210; N-BOC derivatives): 2 ×

COc1cc2cc(C(=O)N3CC(CCl)c4c3cc(O)c3ccc(C#N)cc43)[nH]c2c(OC)c1OC (stereo not drawn) [compound 34]
cytotoxic activity of seco precursors versus cyclopropane containing agents (L1210): indistinguishable from the cyclopropane containing agents

O=C1C=C2NCC3C(F)(F)C23c2ccccc21 (stereo not drawn) [compound 218, 9,9-difluoro-1,2,9,9a-tetrahydrocyclopropa[c]benzo[e]indol-4-one]
solvolysis reactivity relative to corresponding CBI agent lacking the two fluorines [1]: approximately 220 ×
half-life ([1]; 50% ch3oh-buffer, pH 3): 4.2 h
solvolysis rate constant k ([1]; pH 3, 50% CH3OH-buffer): 4.54e-05 s⁻¹

CC(C)(C)OC(=O)N1CC(CCl)c2c1cc(O)c1ccc(C#N)cc21 (stereo not drawn) [compound 23, 3-(tert-Butyloxycarbonyl)-1-(chloromethyl)-8-cyano-5-hydroxy-1,2-dihydro-3H-benz[e]indole]
cytotoxic activity of seco precursors versus cyclopropane containing agents (L1210): indistinguishable from the cyclopropane containing agents

N#Cc1ccc2c(c1)[C@]13C[C@H]1CN(C(=O)c1cc4cc(NC(=O)c5cc6ccccc6[nH]5)ccc4[nH]1)C3=CC2=O [(-)-CCBI-indole2]
DNA alkylation properties, comparison in words (w794 duplex DNA): (-)-CCBI-indole2 >(-)-CCBI-CDPI1>(-)-CCBI-TMI

COc1cc2cc(C(=O)N3C[C@@H]4C[C@]45C3=CC(=O)c3ccc(C#N)cc35)[nH]c2c(OC)c1OC [ent-(-)-CCBI-TMI (35)]
DNA alkylation properties, comparison in words (w794 duplex DNA): nearly indistinguishable
DNA alkylation properties, comparison in words (w794 duplex DNA; listed as (-)-CCBI-TMI): (-)-CCBI-indole2 >(-)-CCBI-CDPI1>(-)-CCBI-TMI

N#Cc1ccc2c(c1)C13CC1CN(C(=O)c1cc4c5c(ccc4[nH]1)N(C(N)=O)CC5)C3=CC2=O (single isomer, unassigned) [compound 39]
DNA alkylation sequence selectivity (w794 duplex DNA): strong preference but not absolute requirement for the fourth 5' base to be A or T versus G or C

COC(=O)c1cc2c([nH]1)C(=O)C=C1N(C(=O)c3cc4cc(OC)c(OC)c(OC)c4[nH]3)CC3CC123 (single isomer, unassigned) [ent-(-)-duocarmycin SA (2), reference compound]
DNA alkylation properties, comparison in words (w794 duplex DNA): slightly more effective

N#Cc1ccc2c(c1)C13CC1CNC3=CC2=O (stereo not drawn) [compound 26, 7-Cyano-1,2,9,9a-tetrahydrocyclopropa[c]benz[e]indol-4-one]
half-life ([1]; ch3oh-buffer 1:1, pH 2): 91.5 h

COc1cc2cc(C(=O)N3CC4C(F)(F)C45C3=CC(=O)c3ccccc35)[nH]c2c(OC)c1OC (racemic) [compound 224]
DNA alkylation properties, comparison in words (w794 duplex DNA): steadily increase as the temperature was decreased from 37 to 25 to 4 °C
DNA alkylation sequence selectivity (w794 duplex DNA; listed as F2 CBI-TMI): only adenine N3 alkylation was detected
DNA alkylation less efficient than CBI-TMI (w794 duplex DNA; racemic): 100-1000 ×
DNA alkylation less efficient, by densitometry, average of several comparisons (w794 duplex DNA; racemic F2 CBI-TMI versus (+)-CBI-TMI): 675-725 ×

CCOC(=O)CCC(=O)N1CC(CCl)c2c1cc(O)c1ccccc21 (stereo not drawn) [compound 115, 1-Chloromethyl-3-(4-ethoxy-1,4-dioxobutyl)-5-hydroxy-1,2-dihydro-3H-benz[e]indole]
cytotoxic activity, ring opened precursor 115 versus cyclopropane 116 (L1210): no distinctions were observed
IC50 (L1210): 5 to 6 nM

COc1ccc2c(c1)C13CC1CN(C(=O)OC(C)(C)C)C3=CC2=O (single isomer, unassigned; (+)) [(+)-N-BOC-MCBI, reference compound]
DNA alkylation efficiency, natural/unnatural enantiomer ratio (w794 duplex DNA): 1-2 ×

CCOC(=O)CCC(=O)N1CC2CC23C1=CC(=O)c1ccccc13 (stereo not drawn) [compound 116, N^2-(4-ethoxy-1,4-dioxobutyl)-1,2,9,9a-tetrahydrocyclopropa[c]benz[e]indole-4-one]
more effective at alkylating DNA than N-BOC-CBI (123) (w794 duplex DNA; natural enantiomer): 10-100 ×
cytotoxic activity, ring opened precursor 115 versus cyclopropane 116 (L1210): no distinctions were observed
IC50 (L1210): 5 to 6 nM

CCOC(=O)C(=O)N1CC(CCl)c2c1cc(O)c1ccccc21 (stereo not drawn) [compound 114, 1-Chloromethyl-3-(2-ethoxy-1,2-dioxoethyl)-5-hydroxy-1,2-dihydro-3H-benz[e]indole]
DNA alkylation properties, comparison in words (w794 duplex DNA): more effective

CC(C)(C)OC(=O)N1CC2CC23C1=CC(=O)c1ccccc13 (single isomer, unassigned; (+)) [(+)-N-BOC-CBI, reference compound]
DNA alkylation efficiency, natural/unnatural enantiomer ratio (w794 duplex DNA): 5-10 ×

CC(=O)N1CC2C(F)(F)C23C1=CC(=O)c1ccccc13 (stereo not drawn) [compound 217]
solvolysis reactivity relative to corresponding CBI agent lacking the two fluorines [1]: 500 ×
solvolysis stability/reactivity [1]: No substantial distinction in the reactivity of 217 and 219 was observed
